Experimental data taken from ChEMBL document CHEMBL2413072, “Synthesis and in vitro anticancer studies of novel C-2 arylidene congeners of lantadenes” (2013).

Key:
Format in all cases: functional
K562 [1] = test: Growth inhibition of human K562 cells assessed as cell growth at 10 uM by sulforhodamine B assay; conditions: read-out: Activity
MDA-MB-468 = test: Growth inhibition of human MDA-MB-468 cells assessed as growth inhibition at 10 uM by sulforhodamine B assay; conditions: read-out: GI
T47D = test: Growth inhibition of human T47D cells assessed as growth inhibition at 10 uM by sulforhodamine B assay; conditions: read-out: GI
[2] = Growth inhibition of human Hs 578T cells assessed as growth inhibition at 10 uM by sulforhodamine B assay; conditions: read-out: GI
PC-3 [3] = test: Growth inhibition of human PC3 cells assessed as growth inhibition at 10 uM by sulforhodamine B assay; conditions: read-out: GI
TK-10 = test: Growth inhibition of human TK10 cells assessed as growth inhibition at 10 uM by sulforhodamine B assay; conditions: read-out: GI
RXF 393 = test: Growth inhibition of human RXF393 cells assessed as growth inhibition at 10 uM by sulforhodamine B assay; conditions: read-out: GI
MOLT-4 [4] = test: Growth inhibition of human MOLT4 cells assessed as cell growth at 10 uM by sulforhodamine B assay; conditions: read-out: Activity
HL-60(TB) = test: Growth inhibition of human HL-60(TB) cells assessed as cell growth at 10 uM by sulforhodamine B assay; conditions: read-out: Activity
SK-MEL-28 [5] = test: Growth inhibition of human SK-MEL-28 cells assessed as growth inhibition at 10 uM by sulforhodamine B assay; conditions: read-out: GI
MDA-MB-435 = test: Growth inhibition of human MDA-MB-435 cells assessed as growth inhibition at 10 uM by sulforhodamine B assay; conditions: read-out: GI
M14 [6] = test: Growth inhibition of human M14 cells assessed as growth inhibition at 10 uM by sulforhodamine B assay; conditions: read-out: GI
LOX IMVI = test: Growth inhibition of human LOXIMVI cells assessed as growth inhibition at 10 uM by sulforhodamine B assay; conditions: read-out: GI
Malme-3M [7] = test: Growth inhibition of human MALME-3M cells assessed as growth inhibition at 10 uM by sulforhodamine B assay; conditions: read-out: GI
U-251 [8] = test: Growth inhibition of human U251 cells assessed as growth inhibition at 10 uM by sulforhodamine B assay; conditions: read-out: GI
SNB-19 = test: Growth inhibition of human SNB19 cells assessed as growth inhibition at 10 uM by sulforhodamine B assay; conditions: read-out: GI
SF-295 = test: Growth inhibition of human SF295 cells assessed as growth inhibition at 10 uM by sulforhodamine B assay; conditions: read-out: GI
SF-268 = test: Growth inhibition of human SF268 cells assessed as growth inhibition at 10 uM by sulforhodamine B assay; conditions: read-out: GI
HCT-15 [9] = test: Growth inhibition of human HCT15 cells assessed as growth inhibition at 10 uM by sulforhodamine B assay; conditions: read-out: GI
[10] = Growth inhibition of human HCC2998 cells assessed as growth inhibition at 10 uM by sulforhodamine B assay; conditions: HCC 2998, read-out: GI
NCI-H522 = test: Growth inhibition of human NCI-H522 cells assessed as growth inhibition at 10 uM by sulforhodamine B assay; conditions: read-out: GI
NCI-H322M [11] = test: Growth inhibition of human NCI-H322M cells assessed as growth inhibition at 10 uM by sulforhodamine B assay; conditions: read-out: GI
NCI-H226 [12] = test: Growth inhibition of human NCI-H226 cells assessed as growth inhibition at 10 uM by sulforhodamine B assay; conditions: read-out: GI
HOP-92 [13] = test: Growth inhibition of human HOP92 cells assessed as growth inhibition at 10 uM by sulforhodamine B assay; conditions: read-out: GI
A549 [14] = test: Growth inhibition of human A549/ATCC cells assessed as growth inhibition at 10 uM by sulforhodamine B assay; conditions: read-out: GI
RPMI-8226 [15] = test: Growth inhibition of human RPMI8226 cells assessed as growth inhibition at 10 uM by sulforhodamine B assay; conditions: read-out: GI
MOLT-4 [16] = test: Growth inhibition of human MOLT4 cells assessed as growth inhibition at 10 uM by sulforhodamine B assay; conditions: read-out: GI
K562 [17] = test: Growth inhibition of human K562 cells assessed as growth inhibition at 10 uM by sulforhodamine B assay; conditions: read-out: GI
CCRF-CEM = test: Growth inhibition of human CCRF-CEM cells assessed as growth inhibition at 10 uM by sulforhodamine B assay; conditions: read-out: GI
MCF7 = test: Growth inhibition of human MCF7 cells assessed as cell growth at 10 uM by sulforhodamine B assay; conditions: read-out: Activity
DU-145 = test: Growth inhibition of human DU145 cells assessed as cell growth at 10 uM by sulforhodamine B assay; conditions: read-out: Activity
PC-3 [18] = test: Growth inhibition of human PC3 cells assessed as cell growth at 10 uM by sulforhodamine B assay; conditions: read-out: Activity
A498 = test: Growth inhibition of human A498 cells assessed as cell growth at 10 uM by sulforhodamine B assay; conditions: read-out: Activity
OVCAR-5 = test: Growth inhibition of human OVCAR5 cells assessed as cell growth at 10 uM by sulforhodamine B assay; conditions: read-out: Activity
OVCAR-4 = test: Growth inhibition of human OVCAR4 cells assessed as cell growth at 10 uM by sulforhodamine B assay; conditions: read-out: Activity
UACC-257 = test: Growth inhibition of human UACC257 cells assessed as cell growth at 10 uM by sulforhodamine B assay; conditions: read-out: Activity
UACC-62 = test: Growth inhibition of human UACC62 cells assessed as cell growth at 10 uM by sulforhodamine B assay; conditions: read-out: Activity
SK-MEL-28 [19] = test: Growth inhibition of human SK-MEL-28 cells assessed as cell growth at 10 uM by sulforhodamine B assay; conditions: read-out: Activity
SK-MEL-2 = test: Growth inhibition of human SK-MEL-2 cells assessed as cell growth at 10 uM by sulforhodamine B assay; conditions: read-out: Activity
M14 [20] = test: Growth inhibition of human M14 cells assessed as cell growth at 10 uM by sulforhodamine B assay; conditions: read-out: Activity
Malme-3M [21] = test: Growth inhibition of human MALME-3M cells assessed as cell growth at 10 uM by sulforhodamine B assay; conditions: read-out: Activity
U-251 [22] = test: Growth inhibition of human U251 cells assessed as cell growth at 10 uM by sulforhodamine B assay; conditions: read-out: Activity
SW-620 = test: Growth inhibition of human SW620 cells assessed as cell growth at 10 uM by sulforhodamine B assay; conditions: read-out: Activity
HCT-15 [23] = test: Growth inhibition of human HCT15 cells assessed as cell growth at 10 uM by sulforhodamine B assay; conditions: read-out: Activity
NCI-H322M [24] = test: Growth inhibition of human NCI-H322M cells assessed as cell growth at 10 uM by sulforhodamine B assay; conditions: read-out: Activity
NCI-H226 [25] = test: Growth inhibition of human NCI-H226 cells assessed as cell growth at 10 uM by sulforhodamine B assay; conditions: read-out: Activity
HOP-92 [26] = test: Growth inhibition of human HOP92 cells assessed as cell growth at 10 uM by sulforhodamine B assay; conditions: read-out: Activity
A549 [27] = test: Growth inhibition of human A549/ATCC cells assessed as cell growth at 10 uM by sulforhodamine B assay; conditions: read-out: Activity
RPMI-8226 [28] = test: Growth inhibition of human RPMI8226 cells assessed as cell growth at 10 uM by sulforhodamine B assay; conditions: read-out: Activity

Structure (SMILES): CC1(C)C[C@@H](O)[C@]2(C(=O)O)CC[C@]3(C)C(=CC[C@@H]4[C@@]5(C)C/C(=C\C=C\c6ccccc6)C(=O)C(C)(C)[C@@H]5CC[C@]43C)[C@@H]2C1
- growth at 10 µM (K562 [1]): 32.4%
- inhibition of growth at 10 µM (MDA-MB-468): 27.4%
- inhibition of growth at 10 µM (T47D): 62.4%
- inhibition of growth at 10 µM [2]: 41.6%
- inhibition of growth at 10 µM (PC-3 [3]): 58.5%
- inhibition of growth at 10 µM (TK-10): 11.7%
- inhibition of growth at 10 µM (RXF 393): 15.9%
- growth at 10 µM (MOLT-4 [4]): 44.4%
- growth at 10 µM (HL-60(TB)): 38.8%
- inhibition of growth at 10 µM (SK-MEL-28 [5]): 25.8%
- inhibition of growth at 10 µM (MDA-MB-435): 27.7%
- inhibition of growth at 10 µM (M14 [6]): 27.1%
- inhibition of growth at 10 µM (LOX IMVI): 38.6%
- inhibition of growth at 10 µM (Malme-3M [7]): 15.5%
- inhibition of growth at 10 µM (U-251 [8]): 66.4%
- inhibition of growth at 10 µM (SNB-19): 26.6%
- inhibition of growth at 10 µM (SF-295): 76.5%
- inhibition of growth at 10 µM (SF-268): 29.3%
- inhibition of growth at 10 µM (HCT-15 [9]): 64.8%
- inhibition of growth at 10 µM [10]: 17.2%
- inhibition of growth at 10 µM (NCI-H522): 52.3%
- inhibition of growth at 10 µM (NCI-H322M [11]): 28.1%
- inhibition of growth at 10 µM (NCI-H226 [12]): 27.7%
- inhibition of growth at 10 µM (HOP-92 [13]): 50.8%
- inhibition of growth at 10 µM (A549 [14]): 77.3%
- inhibition of growth at 10 µM (RPMI-8226 [15]): 84.4%
- inhibition of growth at 10 µM (MOLT-4 [16]): 55.6%
- inhibition of growth at 10 µM (K562 [17]): 67.6%
- inhibition of growth at 10 µM (CCRF-CEM): 80.1%
- growth at 10 µM (MCF7): 33.8%
- growth at 10 µM (DU-145): 71.2%
- growth at 10 µM (PC-3 [18]): 41.5%
- growth at 10 µM (A498): 95.7%
- growth at 10 µM (OVCAR-5): 104%
- growth at 10 µM (OVCAR-4): 54.2%
- growth at 10 µM (UACC-257): 62%
- growth at 10 µM (UACC-62): 50.4%
- growth at 10 µM (SK-MEL-28 [19]): 74.2%
- growth at 10 µM (SK-MEL-2): 64.6%
- growth at 10 µM (M14 [20]): 72.9%
- growth at 10 µM (Malme-3M [21]): 84.5%
- growth at 10 µM (U-251 [22]): 33.6%
- growth at 10 µM (SW-620): 55.8%
- growth at 10 µM (HCT-15 [23]): 35.2%
- growth at 10 µM (NCI-H322M [24]): 71.9%
- growth at 10 µM (NCI-H226 [25]): 72.3%
- growth at 10 µM (HOP-92 [26]): 49.2%
- growth at 10 µM (A549 [27]): 22.7%
- growth at 10 µM (RPMI-8226 [28]): 15.6%
